In brackets after ≈: the same amount, converted by molar mass.
Assays:
[1] = tested on: S. agalactiae; assay: In vitro antibacterial activity, agar dilution MIC; format: cell-based; conditions: Streptococcus agalactiae, 18 h; STR[…] 508 (Table 2)
[2] = tested on: S. pyogenes; assay: In vitro antibacterial activity, agar dilution MIC; format: cell-based; conditions: Streptococcus pyogenes, 18 h
[3] = tested on: K. pneumoniae; assay: In vitro antibacterial activity, agar dilution MIC; format: cell-based, Klebsiella pneumoniae; conditions: ATCC8045, 18 h; KLEBSIELLA PNEUMONIAE ATCC 8045; read-out: MIC
[4] = tested on: P. aeruginosa; assay: In vitro antibacterial activity, agar dilution MIC; format: cell-based; conditions: Pseudomonas aeruginosa, 18 h
[5] = tested on: E. coli; assay: In vitro antibacterial activity, agar dilution MIC; format: cell-based; conditions: Escherichia coli, 18 h
Method: (§1) The in vitro antibacterial activity of the test compound was determined by conventional agar dilution procedures. The organisms were grown overnight in brain-heart infusion (BHI) broth (Difco 0037-01-6) at 36° C. Twofold dilutions of the stock solution ([…]) of the test compound were made in BHI agar obtain a test concentration ranging from […]. The plate was inoculated with approximately 10^4 organisms. It was then incubated at 36° C. for 18 h. the minimal inhibitory concentration was the lowest concentration of the test compound that yielded no visible growth on the plate.

[6] = tested on: EN[…]; assay: In vitro antibacterial activity, agar dilution MIC; format: cell-based; conditions: Enterococcus faecium, ATCC8043, 18 h; EN[…] ATCC 8043
Method: as §1

[7] = tested on: M[…]; assay: In vitro antibacterial activity, agar dilution MIC; format: cell-based; conditions: Micrococcus luteus
Method: as §1

[8] = tested on: S. aureus; assay: In vitro antibacterial activity, agar dilution MIC; format: cell-based; conditions: Staphylococcus aureus, 18 h
Method: as §1

[9] = tested on: STAPHYLOCOCCUS EPIDERMIDIS; assay: In vitro antibacterial activity, agar dilution MIC; format: cell-based; conditions: 18 h; STAPHYLOCOCCUS EPIDERMIDIS 3519
[10] = tested on: STREPTOCOCCUS BOVIS; assay: In vitro antibacterial activity, agar dilution MIC; format: cell-based; conditions: Streptococcus equinus, 18 h; STREPTOCOCCUS BOVIS A5196
[11] = tested on: PROVIDENCIA STUARTII; assay: In vitro antibacterial activity, agar dilution MIC; format: cell-based; conditions: 18 h
[12] = tested on: PSEUDOMONAS CEPACIA; assay: In vitro antibacterial activity, agar dilution MIC; format: cell-based; conditions: Burkholderia cepacia, 18 h; PSEUDOMONAS CEPACIA 296I
[13] = tested on: ACINETOBACTER SP; assay: In vitro antibacterial activity, agar dilution MIC; format: cell-based; conditions: 18 h; ACINETOBACTER SP CMX 669
[14] = Aqueous solubility in Ringer's buffer at pH 7.5 (HPLC); format: physicochemical
Method: A known excess weight of the compound was shaken overnight with a known volume of Ringer's buffer (bicarbonate buffer containing sodium, potassium, calcium and magnesium ions, initially adjusted to pH 7.5). The contents were filtered, and the clear filtrate was analyzed after appropriate dilution using HPLC (UV absorbance detection).

[15] = Oral pharmacokinetics, blood level by disk agar diffusion bioassay; format: in vivo, Mice; conditions: for Blood Level of Compound: mice; for Blood Level of Compound / serum concentrations / blood levels (in words): oral 25 mg/kg; for serum concentrations / blood levels (in words): versus analogs A and B at 100 mg/kg
Method: Mice were administered the quantity of compound indicated orally, as a single dose. At the specified time intervals, blood was collected from groups of five mice. All samples were assayed by a disk agar diffusion bioassay procedure. Bacillus subtilis 6633 or Klebsiella pneumoniae 10032 were used as the assay organisms, and seek agar medium No. 1 (BBL Microbiology Systems; Cockeysville, MD) was the growth medium. The plates were incubated at 32° C for 18 h and read with an image analyzer (Optomax Inc.).

[16] = compared with 2-unsubstituted aminopyrrolidine analogs

For C[C@H]1C[C@H](N)CN1c1cc2c(cc1F)c(=O)c(C(=O)O)cn2-c1ccc(F)cc1F [Example 6], the MIC [1] was 0.1 µg/mL (≈ 0.24 µM), the MIC ([2]; STREPTOCOCCUS PYOGENES 930 CONST) was 0.2 µg/mL (≈ 0.479 µM) and the MIC ([2]; STREPTOCOCCUS PYOGENES EE561) was 0.2 µg/mL (≈ 0.479 µM). For the same compound, the MIC [3] was 0.02 µg/mL (≈ 0.0479 µM), the MIC ([4]; PSEUDOMONAS AERUGINOSA A5007) was 3.1 µg/mL (≈ 7.43 µM) and the MIC ([4]; PSEUDOMONAS AERUGINOSA BMH10) was 0.78 µg/mL (≈ 1.87 µM). The MIC ([4]; PSEUDOMONAS AERUGINOSA K799/61) was 0.02 µg/mL (≈ 0.0479 µM), the MIC ([4]; PSEUDOMONAS AERUGINOSA K799/WT) was 0.39 µg/mL (≈ 0.934 µM) and the MIC ([5]; ESCHERICHIA COLI DC-2) was 0.2 µg/mL (≈ 0.479 µM). It also gave an MIC ([5]; ESCHERICHIA COLI H560) of 0.2 µg/mL (≈ 0.479 µM), an MIC ([5]; ESCHERICHIA COLI JUHL) of 0.05 µg/mL (≈ 0.12 µM) and an MIC ([5]; ESCHERICHIA COLI KNK 437) of 0.2 µg/mL (≈ 0.479 µM). For the same compound, the MIC ([5]; ESCHERICHIA COLI SS) was at most 0.002 µg/mL, the MIC [6] was 0.1 µg/mL (≈ 0.24 µM) and the MIC ([7]; ATCC4698, 18 h, M[…] ATCC 4698) was 0.1 µg/mL (≈ 0.24 µM). The MIC ([7]; ATCC9341, 18 h, M[…] ATCC 9341) was 0.2 µg/mL (≈ 0.479 µM), the MIC ([8]; STAPHYLOCOCCUS AUREUS 45) was 0.1 µg/mL (≈ 0.24 µM) and the MIC ([8]; STAPHYLOCOCCUS AUREUS 45RAR2) was 0.1 µg/mL (≈ 0.24 µM). For the same compound, the MIC ([8]; STAPHYLOCOCCUS AUREUS A5177) was 0.2 µg/mL (≈ 0.479 µM), the MIC ([8]; STAPHYLOCOCCUS AUREUS CMX 503A) was 0.1 µg/mL (≈ 0.24 µM) and the MIC ([8]; STAPHYLOCOCCUS AUREUS CMX 553) was 0.1 µg/mL (≈ 0.24 µM). For the same compound, the MIC ([8]; STAPHYLOCOCCUS AUREUS CMX 6868) was 0.05 µg/mL (≈ 0.12 µM), the MIC ([8]; ATCC6538P, STAPHYLOCOCCUS AUREUS ATCC 6538P) was 0.02 µg/mL (≈ 0.0479 µM) and the MIC [9] was 0.2 µg/mL (≈ 0.479 µM). It also gave an MIC [10] of 0.2 µg/mL (≈ 0.479 µM), an MIC [11] of 1.56 µg/mL (≈ 3.74 µM) and an MIC [12] of 12.5 µg/mL (≈ 29.9 µM). For the same compound, the MIC [13] was 0.1 µg/mL (≈ 0.24 µM), the “AQUEOUS SOLUBILITY” value ([14]; at pH 7.5 in Ringer's buffer) was 0.053 mg/mL and the “solubility properties (in words)” value [14, 16] was “significantly improved aqueous solubility properties”. For the same compound, the “oral absorption properties (in words)” value [15, 16] was “greatly improved oral absorption properties”, the “Blood Level of Compound” value ([15]; t = 0.5 h) was 3.7 µg/mL and the “Blood Level of Compound” value ([15]; t = 1.0 h) was 4.3 µg/mL. For the same compound, the “Blood Level of Compound” value ([15]; t = 2.0 h) was 2.8 µg/mL, the “Blood Level of Compound” value ([15]; t = 3.0 h) was 1.1 µg/mL and the “Blood Level of Compound” value ([15]; t = 6.0 h) was 0.1 µg/mL. The “Blood Level of Compound” value ([15]; t = 24.0 h) was 0.0 µg/mL, the “serum concentrations / blood levels (in words)” value [15] was “still achieve better blood” and the “serum concentrations / blood levels (in words)” value ([15]; listed as Compound 6) was “higher serum concentrations”.
